According to patent US20090005375A1, “ACETYL COENZYME A CARBOXYLASE INHIBITORS” (priority 2007, published 2009):

Legend:
Human ACC2 = molecular target: T1, Human ACC2 (Homo sapiens, UniProt O00763); assay: In vitro enzymatic ACC activity assay (malachite green), ACC2; assay type: biochemical; conditions: recombinant His-tagged enzyme, absorbance at 620 nm
T1 construct: made in house; host or cells: SF-9 insect cells (baculovirus, pFAST-BacHTa)
Procedure: (§1) Provided in Example A is an in vitro enzymatic ACC activity assay for activity against ACC. The binding affinity of the test compound to ACC1 or ACC2 is determined by the changes in absorbance (at 620 nm); […]. It should be noted that a variety of other expression systems and hosts are also suitable for the expression of ACC, as would be readily appreciated by one of skill in the art.
Human ACC2 cDNA except coding region for mitochondria localization sequence was amplified from human skeletal muscle cDNA by polymerase chain reaction using primers; 5′[…]3′ (SEQ ID NO: 3) and 5′[…]3′ (SEQ ID NO: 4). The amplified DNA fragment was digested by SalI and AflII, and cloned into pFAST-BacHTa (Invitrogen). Preparation of recombinant vaculovirus, infection of the virus to SF-9 cells and purification of recombinant ACC2 protein with 6×His-tag at the N-terminal were performed in the same method as described above.
(§2) Malachite green solution was prepared by mixing 100 mL of solution A (0.12% malachite green in 5NH2SO4), 25 mL of solution B (7.5% ammonium molybdate) and 2 mL of solution C (11% TWEEN-20).
(§3) ACC1 was diluted to 8 μg/mL in reaction buffer (50 mM HEPES pH7.5, 10 mM MgCl2, 10 mM tripotassium citrate, 2 mM DTT, 0.75 mg/mL fatty acid free BSA) and 10 μL diluted enzyme solution was pored into each well of 384-well clear bottom plate. Test compound was diluted in the reaction buffer and 5 μL of the compound solution was added into each well, and the mixture was incubated at 30° C. for 60 minutes. Reaction was initiated by addition of 5 μL substrate solution (50 mM KHCO3, 200 μM ATP, 200 μM acetyl-CoA). After incubation at 30° C. for 20 minutes, reaction was terminated by addition of 5 μL malachite green solution and absorbance at 620 nm was measured.
ACC2 was diluted to 6.4 μg/mL in reaction buffer, and the activity was measured by the same method as described for ACC1.
(§4) Percent activity at each concentration of compound was calculated from the following equation: […]
(§5) Data were subjected to nonlinear regression analysis using GraphPad Prism Software (GraphPad Software Inc.) to obtain IC50 values.

Human ACC1 = molecular target: T2, Human ACC1 (Homo sapiens, UniProt Q13085); assay: In vitro enzymatic ACC activity assay (malachite green), ACC1; assay type: biochemical; conditions: recombinant His-tagged enzyme, absorbance at 620 nm
T2 construct: made in house; host or cells: SF-9 insect cells (baculovirus, pFAST-BacHTc)
Procedure: as §1
Human ACC1 cDNA was amplified from human liver cDNA by polymerase chain reaction using primers; 5′[…]3′ (SEQ ID NO: 1) and 5′[…]3′ (SEQ ID NO: 2). The amplified DNA fragment was digested by restriction enzyme SalI and NotI, and cloned into pFAST-BacHTc (Invitrogen). This plasmid DNA was used for preparation of recombinant vaculovirus with BAC-TO-BAC Baculovirus Expression System (Invitrogen).
SF-9 cells were infected with the vaculovirus and cultured at 27° C. for 3 days. Harvested cells were homogenized in buffer A (25 mM HEPES (pH7.5), 130 mM NaCl, 1 mM EDTA, 25 mM sodium glycerophosphate, 1 mM sodium orthovanadate, 10% glycerol, complete protease inhibitor), and subjected to ultracentrifuge at 185700×g for 50 min at 4° C. ACC1 protein with 6×His-tag at the N-terminal was purified from the supernatant using Ni-NTA Super Flow Gel (QIAGEN). Eluted protein was dialysed against buffer B (50 mM HEPES (pH 7.5), 300 mM NaCl, 10 mM MgCl2, 10 mM tripotassium citrate, 2 mM dithiothreitol) and concentrated using Vivaspin20 ultrafiltration tube (Sartorius).
as §2, §3, §4, §5

T1 sequence (O00763 117-2458 limits assumed): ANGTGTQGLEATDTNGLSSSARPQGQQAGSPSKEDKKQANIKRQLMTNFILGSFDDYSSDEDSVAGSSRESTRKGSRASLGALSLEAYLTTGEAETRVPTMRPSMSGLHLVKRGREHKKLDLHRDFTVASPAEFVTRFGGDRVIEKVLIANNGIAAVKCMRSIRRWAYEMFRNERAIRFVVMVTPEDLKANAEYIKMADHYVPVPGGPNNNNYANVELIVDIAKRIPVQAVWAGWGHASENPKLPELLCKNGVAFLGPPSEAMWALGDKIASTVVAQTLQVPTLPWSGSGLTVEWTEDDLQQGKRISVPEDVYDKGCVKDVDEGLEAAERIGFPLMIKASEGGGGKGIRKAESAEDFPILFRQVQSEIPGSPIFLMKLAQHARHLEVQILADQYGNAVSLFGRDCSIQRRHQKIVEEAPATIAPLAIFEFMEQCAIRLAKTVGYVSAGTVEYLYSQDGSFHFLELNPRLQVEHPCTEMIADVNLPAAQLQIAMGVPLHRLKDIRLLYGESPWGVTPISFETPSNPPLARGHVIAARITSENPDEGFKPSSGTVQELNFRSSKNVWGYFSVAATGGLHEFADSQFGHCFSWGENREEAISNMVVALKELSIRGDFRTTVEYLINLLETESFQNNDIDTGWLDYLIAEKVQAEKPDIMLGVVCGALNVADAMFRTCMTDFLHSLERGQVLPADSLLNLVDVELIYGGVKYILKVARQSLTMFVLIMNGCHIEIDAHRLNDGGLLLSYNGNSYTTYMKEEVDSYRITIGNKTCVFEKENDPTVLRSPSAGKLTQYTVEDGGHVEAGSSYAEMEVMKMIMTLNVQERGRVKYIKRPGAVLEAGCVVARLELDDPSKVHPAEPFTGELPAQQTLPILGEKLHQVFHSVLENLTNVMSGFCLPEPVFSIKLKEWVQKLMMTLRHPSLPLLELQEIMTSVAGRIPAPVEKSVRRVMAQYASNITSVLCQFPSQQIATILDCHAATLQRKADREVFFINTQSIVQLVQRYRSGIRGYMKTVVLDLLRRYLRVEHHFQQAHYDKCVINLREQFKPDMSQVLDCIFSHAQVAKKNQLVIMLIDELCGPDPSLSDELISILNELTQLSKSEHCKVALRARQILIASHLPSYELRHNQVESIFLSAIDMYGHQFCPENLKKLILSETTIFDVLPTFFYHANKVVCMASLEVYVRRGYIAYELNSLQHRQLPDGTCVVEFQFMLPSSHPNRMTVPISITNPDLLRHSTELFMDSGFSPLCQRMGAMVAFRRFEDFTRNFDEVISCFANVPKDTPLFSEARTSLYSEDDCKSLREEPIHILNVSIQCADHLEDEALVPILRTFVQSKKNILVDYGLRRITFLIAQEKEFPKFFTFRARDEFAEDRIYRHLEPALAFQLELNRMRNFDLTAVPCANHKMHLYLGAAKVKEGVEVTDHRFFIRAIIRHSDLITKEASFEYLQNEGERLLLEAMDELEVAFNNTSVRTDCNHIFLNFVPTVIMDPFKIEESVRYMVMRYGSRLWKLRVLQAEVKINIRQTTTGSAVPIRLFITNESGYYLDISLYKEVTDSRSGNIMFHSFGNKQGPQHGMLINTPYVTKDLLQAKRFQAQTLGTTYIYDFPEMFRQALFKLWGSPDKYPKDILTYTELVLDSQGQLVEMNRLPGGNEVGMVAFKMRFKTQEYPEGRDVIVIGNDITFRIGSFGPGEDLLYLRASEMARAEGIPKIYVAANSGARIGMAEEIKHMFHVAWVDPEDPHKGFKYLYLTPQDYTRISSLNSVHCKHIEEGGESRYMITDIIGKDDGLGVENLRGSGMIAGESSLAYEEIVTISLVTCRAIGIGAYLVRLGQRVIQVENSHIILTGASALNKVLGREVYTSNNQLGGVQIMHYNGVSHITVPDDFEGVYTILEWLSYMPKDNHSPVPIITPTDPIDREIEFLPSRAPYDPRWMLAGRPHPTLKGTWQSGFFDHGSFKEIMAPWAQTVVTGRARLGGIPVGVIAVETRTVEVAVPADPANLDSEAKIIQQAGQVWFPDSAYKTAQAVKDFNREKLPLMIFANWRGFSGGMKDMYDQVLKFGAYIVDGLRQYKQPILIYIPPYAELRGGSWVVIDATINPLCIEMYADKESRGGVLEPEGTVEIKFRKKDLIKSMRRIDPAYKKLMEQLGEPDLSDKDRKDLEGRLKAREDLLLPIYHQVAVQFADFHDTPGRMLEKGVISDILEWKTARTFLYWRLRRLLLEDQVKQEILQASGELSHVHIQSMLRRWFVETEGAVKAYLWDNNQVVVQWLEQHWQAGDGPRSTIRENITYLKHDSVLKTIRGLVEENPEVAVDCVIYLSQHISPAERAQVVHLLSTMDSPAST

## CCNC(=O)Nc1sc2ccccc2c1C(=O)N1CCN(S(=O)(=O)CCC(=O)OCC)CC1 [Example 25, Ethyl 3-(4-(2-(3-ethylureido)benzo[b]thiophene-3-carbonyl)piperazin-1-ylsulfonyl)propanoate]
Human ACC2
  IC50: 5 to 50 µM
Human ACC1
  IC50: 5 to 50 µM

## CCNC(=O)Nc1sc2ccccc2c1C(=O)N1CCN(S(=O)(=O)CC(C)C)CC1 [Example 26, ethyl-3-(3-(4-(isobutylsulfonyl)piperazine-1-carbonyl)benzo[b]thiophen-2-yl)urea]
Human ACC2
  IC50: 5 to 50 µM
Human ACC1
  IC50: 5 to 50 µM

## CCNC(=O)Nc1sc2ccccc2c1C(=O)N1CCN(S(=O)(=O)CCC(F)(F)F)CC1 [Example 27, ethyl-3-(3-(4-(3,3,3-trifluoropropylsulfonyl)piperazine-1-carbonyl)benzo[b]thiophen-2-yl)urea]
Human ACC2
  IC50: 5 to 50 µM
Human ACC1
  IC50: > 50 µM

## CCNC(=O)Nc1sc2ccccc2c1C(=O)N1CCN(S(C)(=O)=O)CC1 [Example 28, ethyl-3-(3-(4-(methylsulfonyl)piperazine-1-carbonyl)benzo[b]thiophen-2-yl)urea]
Human ACC2
  IC50: > 50 µM
Human ACC1
  IC50: > 50 µM

## CCNC(=O)Nc1sc2ccccc2c1C(=O)N1CCN(S(=O)(=O)c2ccc(S(C)(=O)=O)cc2)CC1 [Example 29, ethyl-3-(3-(4-(4-(methylsulfonyl)phenylsulfonyl)piperazine-1-carbonyl)benzo[b]thiophen-2-yl)urea]
Human ACC2
  IC50: 5 to 50 µM
Human ACC1
  IC50: > 50 µM

## CCNC(=O)Nc1sc2ccccc2c1C(=O)N1CCN(S(=O)(=O)c2ccc3c(c2)NC(=O)C3)CC1 [Example 30, ethyl-3-(3-(4-(2-oxoindolin-6-ylsulfonyl)piperazine-1-carbonyl)benzo[b]thiophen-2-yl)urea]
Human ACC2
  IC50: < 5 µM
Human ACC1
  IC50: 5 to 50 µM

## CCNC(=O)Nc1sc2ccccc2c1C(=O)N1CCN(S(=O)(=O)c2ccc3[nH]c(=O)[nH]c3c2)CC1 [Example 31, ethyl-3-(3-(4-(2-oxo-2,3-dihydro-1H-benzo[d]imidazol-5-ylsulfonyl)piperazine-1-carbonyl)benzo[b]thiophen-2-yl)urea]
Human ACC2
  IC50: < 5 µM
Human ACC1
  IC50: < 5 µM

## CCNC(=O)Nc1sc2ccccc2c1C(=O)N1CCN(S(=O)(=O)c2ccc3oc(=O)[nH]c3c2)CC1 [Example 32, ethyl-3-(3-(4-(2-oxo-2,3-dihydrobenzo[d]oxazol-5-ylsulfonyl)piperazine-1-carbonyl)benzo[b]thiophen-2-yl)urea]
Human ACC2
  IC50: 5 to 50 µM
Human ACC1
  IC50: > 50 µM

## CCNC(=O)Nc1sc2ccccc2c1C(=O)N1CCN(S(=O)(=O)CCC(=O)N(CC)CC)CC1 [Example 34, N,N-diethyl-3-(4-(2-(3-ethylureido)benzo[b]thiophene-3-carbonyl)piperazin-1-ylsulfonyl)propanamide]
Human ACC2
  IC50: 5 to 50 µM
Human ACC1
  IC50: 5 to 50 µM

## CCNC(=O)Nc1sc2ccccc2c1C(=O)N1CCN(S(=O)(=O)CCC(=O)N2CCCC2)CC1 [Example 35, ethyl-3-(3-(4-(3-oxo-3-(pyrrolidin-1-yl)propylsulfonyl)piperazine-1-carbonyl)benzo[b]thiophen-2-yl)urea]
Human ACC2
  IC50: 5 to 50 µM
Human ACC1
  IC50: 5 to 50 µM

## CCNC(=O)Nc1sc2ccccc2c1C(=O)N1CCN(S(=O)(=O)CCC(=O)N2CCOCC2)CC1 [Example 36, ethyl-3-(3-(4-(3-morpholino-3-oxopropylsulfonyl)piperazine-1-carbonyl)benzo[b]thiophen-2-yl)urea]
Human ACC2
  IC50: 5 to 50 µM
Human ACC1
  IC50: 5 to 50 µM

## CCNC(=O)Nc1sc2ccccc2c1C(=O)N1CCC(S(=O)(=O)c2cccc(OC)c2)CC1 [Example 37, ethyl-3-(3-(4-(3-methoxyphenylsulfonyl)piperidine-1-carbonyl)benzo[b]thiophen-2-yl)urea]
Human ACC2
  IC50: < 5 µM
Human ACC1
  IC50: > 50 µM

## CCNC(=O)Nc1sc2ccccc2c1C(=O)N1CCC(S(=O)(=O)c2ccc3c(c2)OCO3)CC1 [Example 38, 1-(3-(4-(benzo[d][1,3]dioxol-5-ylsulfonyl)piperidine-1-carbonyl)benzo[b]thiophen-2-yl)-3-ethylurea]
Human ACC2
  IC50: > 50 µM
Human ACC1
  IC50: > 50 µM

## CCNC(=O)Nc1sc2ccccc2c1C(=O)N1CCC(Sc2cccc(OC)c2)CC1 [Example 39, ethyl-3-(3-(4-(3-methoxyphenylthio)piperidine-1-carbonyl)benzo[b]thiophen-2-yl)urea]
Human ACC2
  IC50: < 5 µM
Human ACC1
  IC50: < 5 µM

## CCNC(=O)Nc1sc2ccccc2c1C(=O)N1CCC(Sc2cccc(OC(F)(F)F)c2)CC1 [Example 40, ethyl-3-(3-(4-(3-(trifluoromethoxy)phenylthio)piperidine-1-carbonyl)benzo[b]thiophen-2-yl)urea]
Human ACC2
  IC50: 5 to 50 µM
Human ACC1
  IC50: > 50 µM

## CCNC(=O)Nc1sc2ccccc2c1C(=O)N1CCC([S+]([O-])c2cccc(OC)c2)CC1 (stereo not shown) [Example 41, ethyl-3-(3-(4-(3-methoxyphenylsulfinyl)piperidine-1-carbonyl)benzo[b]thiophen-2-yl)urea]
Human ACC2
  IC50: 5 to 50 µM
Human ACC1
  IC50: 5 to 50 µM

## CCNC(=O)Nc1sc2ccccc2c1C(=O)N1CCC([S+]([O-])c2cccc(OC(F)(F)F)c2)CC1 (stereo not shown) [Example 42, ethyl-3-(3-(4-(3-(trifluoromethoxy)phenylsulfinyl)piperidine-1-carbonyl)benzo[b]thiophen-2-yl)urea]
Human ACC2
  IC50: 5 to 50 µM
Human ACC1
  IC50: > 50 µM
